Assay results as given in article PMC11092195, “Selective Detection of Active Extracellular Granzyme A by Using a Novel Fluorescent Immunoprobe with Application to Inflammatory Diseases” (ACS Pharmacology & Translational Science, 2024).
Structures can show the parent of a compound that is named as a salt.

Target: T1, hGzmK (human GzmK) (Homo sapiens, UniProt P49863)
T1 construct: commercial, Enzo Life Sciences
T1 sequence (P49863 27-264): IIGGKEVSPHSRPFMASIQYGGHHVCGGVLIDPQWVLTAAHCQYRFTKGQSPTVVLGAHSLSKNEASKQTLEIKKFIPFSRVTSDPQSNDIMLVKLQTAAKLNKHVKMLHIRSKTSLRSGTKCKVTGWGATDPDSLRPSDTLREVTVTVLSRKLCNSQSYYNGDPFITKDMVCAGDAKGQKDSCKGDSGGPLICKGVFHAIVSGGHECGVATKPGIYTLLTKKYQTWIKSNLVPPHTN
Assay: thioester hydrolysis with DTNB, used to normalise enzyme units
Assay type: biochemical
Settings: Tris-HCl pH 8.5, 37 °C

NCCCC[C@H](NC(=O)OCc1ccccc1)C(=O)SCc1ccccc1 [Nα-CBZ-L-Lysine thiobenzyl ester hydrochloride]
thioester hydrolysis with DTNB, used to normalise enzyme units: activity of the different trypsin-like proteases was equated using a common substrate
